Patent US8163702B2, “Treatment of melanoma” (SciClone Pharmaceuticals, Inc., priority 2006, dated 2012)

Tested on: murine B16 melanoma
Test: Antitumor effect in murine B16 melanoma model, tumor size and tumor weight (Example 2)
Type: in vivo, C57BL/6 mice
Procedure: As per aseptic tissue culture procedures, one vial of B16 melanoma cells (supplied by Cell Culture Center of CAMS) was thawed and centrifuged at 1000 rpm, 20-25° C. for 5 minutes. The cell pellets were suspended in 0.1-0.5 mL normal saline (NS) and subcutaneously injected into the right axilla of each mouse (approximately 1×10^6 cells/mouse). When the tumor diameter was 1 cm approximately (measured by vernier caliper), the animals were euthanized with CO2 asphyxiation and the tumor was excised. Tumor cells were suspended in normal saline as previously described and the cell adaptation cycle was repeated once.
On Day 0, 1×10^6 B16 cells in a volume of 0.1 mL normal saline were subcutaneously injected into the right axillary area of the mouse. The day of tumor inoculation was defined as Day 0.
Dosing was initiated on Day 1.
Observations were recorded daily for mortality and moribundity. […] The tumors were excised, separated, and weighed.
Tumor volume was calculated using the following formula: Tumor Volume=Length×Width×Width/2 Tumor volume inhibition rate (IR) was calculated according to the formula: IR(TV)=(TVvehicle−TVdrug treated)/TVvehicle×100% TV is the tumor volume on the day of measurement.
The antitumor effect of the test article was also evaluated by tumor weight. The tumor weight of each mouse was recorded after euthanasia, and the inhibition rate of tumor weight was calculated according to the formula: IR(TW)=(Tumor weightvehicle−Tumor weightdrug treated)/Tumor weightvehicle×100%

[1] = Day 9, SCV-07 0.01 mg/kg/day sc
[2] = Day 9, mouse F1, SCV-07 0.1 mg/kg sc
[3] = Day 9, mouse F1, SCV-07 5.0 mg/kg sc
[4] = Day 9, mouse F2, SCV-07 0.01 mg/kg sc
[5] = Day 9, mouse F2, SCV-07 0.1 mg/kg sc
[6] = Day 9, mouse F2, SCV-07 1.0 mg/kg sc
[7] = Day 9, mouse F2, SCV-07 5.0 mg/kg sc
[8] = Day 9, mouse F3, SCV-07 0.1 mg/kg sc
[9] = Day 9, mouse F3, SCV-07 1.0 mg/kg sc
[10] = Day 9, mouse F4, SCV-07 0.01 mg/kg sc
[11] = Day 9, mouse F4, SCV-07 0.1 mg/kg sc
[12] = Day 9, mouse F4, SCV-07 1.0 mg/kg sc
[13] = Day 9, mouse F4, SCV-07 5.0 mg/kg sc
[14] = Day 9, mouse F5, SCV-07 0.01 mg/kg sc
[15] = Day 9, mouse F5, SCV-07 0.1 mg/kg sc
[16] = Day 9, mouse F5, SCV-07 1.0 mg/kg sc
[17] = Day 9, mouse F5, SCV-07 5.0 mg/kg sc
[18] = Day 9, mouse M1, SCV-07 0.01 mg/kg sc
[19] = Day 9, mouse M1, SCV-07 0.1 mg/kg sc
[20] = Day 9, mouse M1, SCV-07 1.0 mg/kg sc
[21] = Day 9, mouse M1, SCV-07 5.0 mg/kg sc
[22] = Day 9, mouse M2, SCV-07 0.01 mg/kg sc
[23] = Day 9, mouse M2, SCV-07 1.0 mg/kg sc
[24] = Day 9, mouse M3, SCV-07 0.01 mg/kg sc
[25] = Day 9, mouse M3, SCV-07 1.0 mg/kg sc
[26] = Day 9, mouse M3, SCV-07 5.0 mg/kg sc
[27] = Day 9, mouse M4, SCV-07 0.1 mg/kg sc
[28] = Day 9, mouse M4, SCV-07 1.0 mg/kg sc
[29] = Day 9, mouse M4, SCV-07 5.0 mg/kg sc
[30] = Day 9, mouse M5, SCV-07 0.01 mg/kg sc
[31] = Day 9, mouse M5, SCV-07 0.1 mg/kg sc
[32] = Day 12, SCV-07 0.01 mg/kg/day sc
[33] = Day 12, SCV-07 0.1 mg/kg/day sc
[34] = Day 12, SCV-07 1.0 mg/kg/day sc
[35] = Day 12, SCV-07 5.0 mg/kg/day sc
[36] = Day 12, mouse F1, SCV-07 0.01 mg/kg sc
[37] = Day 12, mouse F1, SCV-07 0.1 mg/kg sc
[38] = Day 12, mouse F1, SCV-07 1.0 mg/kg sc
[39] = Day 12, mouse F1, SCV-07 5.0 mg/kg sc
[40] = Day 12, mouse F2, SCV-07 0.01 mg/kg sc
[41] = Day 12, mouse F2, SCV-07 0.1 mg/kg sc
[42] = Day 12, mouse F2, SCV-07 1.0 mg/kg sc

N[C@H](CCC(=O)N[C@@H](Cc1c[nH]c2ccccc12)C(=O)O)C(=O)O [SCV-07, γ-D-glutamyl-L-tryptophan]
Tumor Volume (Mean ± SD) (Day 3, SCV-07 0.01 mg/kg/day sc, not measurable defined as 0): 0 cm^3 | Tumor Volume (Mean ± SD) (Day 3, SCV-07 0.1 mg/kg/day sc, not measurable defined as 0): 0 cm^3 | Tumor Volume (Mean ± SD) (Day 3, SCV-07 1.0 mg/kg/day sc, not measurable defined as 0): 0 cm^3 | Tumor Volume (Mean ± SD) (Day 3, SCV-07 5.0 mg/kg/day sc, not measurable defined as 0): 0 cm^3 | Tumor Volume (Mean ± SD) (Day 6, SCV-07 0.01 mg/kg/day sc, not measurable defined as 0): 0 cm^3 | Tumor Volume (Mean ± SD) (Day 6, SCV-07 0.1 mg/kg/day sc, not measurable defined as 0): 0 cm^3 | Tumor Volume (Mean ± SD) (Day 6, SCV-07 1.0 mg/kg/day sc, not measurable defined as 0): 0 cm^3 | Tumor Volume (Mean ± SD) (Day 6, SCV-07 5.0 mg/kg/day sc, not measurable defined as 0): 0 cm^3 | IR (tumor volume inhibition rate) [1]: −4.3% | Tumor Volume (Mean ± SD) [1]: 0.045 ± 0.042 cm^3 | IR (tumor volume inhibition rate) (Day 9, SCV-07 0.1 mg/kg/day sc): 11.5% | Tumor Volume (Mean ± SD) (Day 9, SCV-07 0.1 mg/kg/day sc): 0.039 ± 0.038 cm^3 | IR (tumor volume inhibition rate) (Day 9, SCV-07 1.0 mg/kg/day sc): 19.7% | Tumor Volume (Mean ± SD) (Day 9, SCV-07 1.0 mg/kg/day sc): 0.035 ± 0.036 cm^3 | IR (tumor volume inhibition rate) (Day 9, SCV-07 5.0 mg/kg/day sc): −11.0% | Tumor Volume (Mean ± SD) (Day 9, SCV-07 5.0 mg/kg/day sc): 0.048 ± 0.036 cm^3 | Tumor measurements L [2]: 0.5 cm | Tumor measurements W [2]: 0.5 cm | Tumor volumes [2]: 0.06 cm^3 | Tumor measurements L [3]: 0.5 cm | Tumor measurements W [3]: 0.5 cm | Tumor volumes [3]: 0.06 cm^3 | Tumor measurements L [4]: 0.5 cm | Tumor measurements W [4]: 0.5 cm | Tumor volumes [4]: 0.06 cm^3 | Tumor measurements L [5]: 0.5 cm | Tumor measurements W [5]: 0.5 cm | Tumor volumes [5]: 0.06 cm^3 | Tumor measurements L [6]: 0.5 cm | Tumor measurements W [6]: 0.5 cm | Tumor volumes [6]: 0.06 cm^3 | Tumor measurements L [7]: 0.5 cm | Tumor measurements W [7]: 0.5 cm | Tumor volumes [7]: 0.06 cm^3 | Tumor measurements L [8]: 0.5 cm | Tumor measurements W [8]: 0.5 cm | Tumor volumes [8]: 0.06 cm^3 | Tumor measurements L [9]: 0.6 cm | Tumor measurements W [9]: 0.6 cm | Tumor volumes [9]: 0.11 cm^3 | Tumor measurements L [10]: 0.5 cm | Tumor measurements W [10]: 0.5 cm | Tumor volumes [10]: 0.06 cm^3 | Tumor measurements L [11]: 0.6 cm | Tumor measurements W [11]: 0.6 cm | Tumor volumes [11]: 0.11 cm^3 | Tumor measurements L [12]: 0.3 cm | Tumor measurements W [12]: 0.3 cm | Tumor volumes [12]: 0.01 cm^3 | Tumor measurements L [13]: 0.6 cm | Tumor measurements W [13]: 0.6 cm | Tumor volumes [13]: 0.11 cm^3 | Tumor measurements L [14]: 0.6 cm | Tumor measurements W [14]: 0.6 cm | Tumor volumes [14]: 0.11 cm^3 | Tumor measurements L [15]: 0 cm | Tumor measurements W [15]: 0 cm | Tumor volumes [15]: 0.00 cm^3 | Tumor measurements L [16]: 0.5 cm | Tumor measurements W [16]: 0.5 cm | Tumor volumes [16]: 0.06 cm^3 | Tumor measurements L [17]: 0.5 cm | Tumor measurements W [17]: 0.5 cm | Tumor volumes [17]: 0.06 cm^3 | Tumor measurements L [18]: 0.6 cm | Tumor measurements W [18]: 0.6 cm | Tumor volumes [18]: 0.11 cm^3 | Tumor measurements L [19]: 0.3 cm | Tumor measurements W [19]: 0.3 cm | Tumor volumes [19]: 0.01 cm^3 | Tumor measurements L [20]: 0.3 cm | Tumor measurements W [20]: 0.3 cm | Tumor volumes [20]: 0.01 cm^3 | Tumor measurements L [21]: 0.5 cm | Tumor measurements W [21]: 0.5 cm | Tumor volumes [21]: 0.06 cm^3 | Tumor measurements L [22]: 0.4 cm | Tumor measurements W [22]: 0.4 cm | Tumor volumes [22]: 0.03 cm^3 | Tumor volumes (Day 9, mouse M2, SCV-07 0.1 mg/kg sc): 0.00 cm^3 | Tumor measurements L [23]: 0.5 cm | Tumor measurements W [23]: 0.5 cm | Tumor volumes [23]: 0.06 cm^3 | Tumor measurements L [24]: 0.4 cm | Tumor measurements W [24]: 0.3 cm | Tumor volumes [24]: 0.02 cm^3 | Tumor volumes (Day 9, mouse M3, SCV-07 0.1 mg/kg sc): 0.00 cm^3 | Tumor measurements L [25]: 0.3 cm | Tumor measurements W [25]: 0.3 cm | Tumor volumes [25]: 0.01 cm^3 | Tumor measurements L [26]: 0.5 cm | Tumor measurements W [26]: 0.5 cm | Tumor volumes [26]: 0.06 cm^3 | Tumor measurements L [27]: 0.3 cm | Tumor measurements W [27]: 0.3 cm | Tumor volumes [27]: 0.01 cm^3 | Tumor measurements L [28]: 0.3 cm | Tumor measurements W [28]: 0.3 cm | Tumor volumes [28]: 0.01 cm^3 | Tumor measurements L [29]: 0.5 cm | Tumor measurements W [29]: 0.5 cm | Tumor volumes [29]: 0.06 cm^3 | Tumor measurements L [30]: 0.5 cm | Tumor measurements W [30]: 0.5 cm | Tumor volumes [30]: 0.06 cm^3 | Tumor measurements L [31]: 0.5 cm | Tumor measurements W [31]: 0.5 cm | Tumor volumes [31]: 0.06 cm^3 | IR (tumor volume inhibition rate) [32]: 51.2% | Tumor Volume (Mean ± SD) [32]: 0.368 ± 0.223 cm^3 | IR (tumor volume inhibition rate) [33]: 37.7% | Tumor Volume (Mean ± SD) [33]: 0.469 ± 0.199 cm^3 | IR (tumor volume inhibition rate) [34]: 61.3% | Tumor Volume (Mean ± SD) [34]: 0.292 ± 0.169 cm^3 | IR (tumor volume inhibition rate) [35]: 54.9% | Tumor Volume (Mean ± SD) [35]: 0.340 ± 0.195 cm^3 | Tumor measurements L [36]: 0.1 cm | Tumor measurements W [36]: 0.1 cm | Tumor volumes [36]: 5E−04 cm^3 | Tumor measurements L [37]: 1.0 cm | Tumor measurements W [37]: 1.0 cm | Tumor volumes [37]: 0.50 cm^3 | Tumor measurements L [38]: 1.0 cm | Tumor measurements W [38]: 0.7 cm | Tumor volumes [38]: 0.25 cm^3 | Tumor measurements L [39]: 1.0 cm | Tumor measurements W [39]: 0.9 cm | Tumor volumes [39]: 0.41 cm^3 | Tumor measurements L [40]: 1.0 cm | Tumor measurements W [40]: 0.7 cm | Tumor volumes [40]: 0.25 cm^3 | Tumor measurements L [41]: 1.0 cm | Tumor measurements W [41]: 1.0 cm | Tumor volumes [41]: 0.50 cm^3 | Tumor measurements L [42]: 0.9 cm | Tumor measurements W [42]: 0.9 cm | Tumor volumes [42]: 0.36 cm^3
